This experiment has as its system bacteria. As to conditions: for MIC, Peptide: unmodified parent peptide.
[1] abbreviates: A. calcoaceticus AC002, agarose dilution.
The mark [2] stands for this setting: E. cloacae ECL007, agarose dilution.
Where [3] appears, read: E. faecalis EFS001, agarose dilution.
Setting [4] is: E. faecalis EFS008, agarose dilution.
Where [5] appears, read: K. pneumoniae KP001, agarose dilution.
[6] abbreviates: P. aeruginosa PA004, agarose dilution.
[7] abbreviates: S. aureus SA014, agarose dilution.
Setting [8] is: S. aureus SA093, agarose dilution.
Setting [9] is: S. epidermidis SE010, agarose dilution.
[10] abbreviates: S. maltophilia SMA002, agarose dilution.
The mark [11] stands for this setting: S. marcescens SMS003, agarose dilution.
Setting [12] is: E. coli ECO005, agarose dilution.

Converted amounts (≈) assume the structure as drawn. Read-outs that look alike come from different tables or passages of the source.

In the case of L K K W P W W P W R R K [MBI 11D1CN], the MIC (A. calcoaceticus AC001) was above 128 µg/mL; the MIC (E. cloacae ECL007) was above 128 µg/mL; the minimal inhibitory concentration (MIC) (E. coli ECO002) is 16 µg/mL; the MIC (E. faecalis EFS002) stood at 32 µg/mL; the MIC (E. faecium EFM001) was determined as 16 µg/mL; the MIC (K. pneumoniae KP002) amounted to 64 µg/mL. The MIC runs as follows: (P. aeruginosa PA003) above 128 µg/mL; (S. aureus SA004) 2 µg/mL; (S. epidermidis SE010) 8 µg/mL; (S. maltophilia SMA001) 64 µg/mL; (S. marcescens SMS003) above 128 µg/mL.
On to I L K K W P W W P W R K [MBI 11B4ACN], for which the MIC reads like this: (A. calcoaceticus AC002) 4 µg/mL; (E. cloacae ECL007) above 128 µg/mL; (E. coli ECO005) 32 µg/mL; (E. faecalis EFS008) 64 µg/mL; (K. pneumoniae KP001) 32 µg/mL; (P. aeruginosa PA004) above 128 µg/mL. In addition, the MIC by setting is: (S. aureus SA008) 1 µg/mL; (S. epidermidis SE010) 8 µg/mL; (S. maltophilia SMA002) 64 µg/mL; (S. marcescens SMS003) above 128 µg/mL.
Turning to `CC[C@H](C)[C@H](NC(=O)[C@H](CC(C)C)NC(=O)[C@H](C)NC(=O)[C@@H]1CCCN1C(=O)[C@H](CC(C)C)NC(=O)CNC(=O)[C@@H](NC(=O)[C@@H](NC(=O)[C@H](CC(C)C)NC(=O)[C@@H](NC(=O)[C@H](CCCCN)NC(=O)[C@H](CCCCN)NC(=O)[C@@H](NC(=O)[C@H](C)NC(=O)[C@@H](NC(=O)[C@@H](NC(=O)[C@H](CC(C)C)NC(=O)[C@H](CCCCN)NC(=O)[C@H](CCCCN)NC(=O)[C@@H](NC(=O)[C@H](Cc1ccccc1)NC(=O)[C@H](CO)NC(=O)[C@H](CCCCN)NC(=O)[C@H](Cc1c[nH]c2ccccc12)NC(=O)[C@@H](N)CCCCN)[C@@H](C)CC)[C@@H](C)O)[C@@H](C)O)C(C)C)C(C)C)[C@@H](C)O)[C@@H](C)O)C(=O)N[C@@H](CO)C(=O)O` [MBI29], the “MIC, Peptide” value by setting is: under setting [1], 1 µg/mL (≈ 0.348 µM); under setting [2], above 64 µg/mL; (E. coli EC0005, agarose dilution) 4 µg/mL (≈ 1.39 µM); under setting [3], 0.5 µg/mL (≈ 0.174 µM); under setting [4], 0.5 µg/mL (≈ 0.174 µM); under setting [5], 2 µg/mL (≈ 0.696 µM). Besides, the “MIC, Peptide” value is, setting by setting: under setting [6], 16 µg/mL (≈ 5.57 µM); under setting [7], 1 µg/mL (≈ 0.348 µM); under setting [8], 0.5 µg/mL (≈ 0.174 µM); under setting [9], 4 µg/mL (≈ 1.39 µM); under setting [10], 2 µg/mL (≈ 0.696 µM); under setting [11], above 128 µg/mL.
Consider I L R W P W W P W R R K [MBI 11B7CNF12], for which the minimum inhibitory concentration (MIC) is 4 µg/mL under setting [1]; above 128 µg/mL under setting [2]; 16 µg/mL under setting [12]; 2 µg/mL under setting [3]; 8 µg/mL under setting [4]; 16 µg/mL under setting [5]. The MIC reads like this: under setting [6], above 128 µg/mL; under setting [7], 2 µg/mL; under setting [8], 1 µg/mL; under setting [9], 4 µg/mL; under setting [10], 64 µg/mL; under setting [11], above 128 µg/mL.
I L R R W P W W P W R R R [MBI 11B9ACN]: the MIC by setting is: (A. calcoaceticus AC001) 32 µg/mL; (E. coli ECO003) 8 µg/mL; (E. faecalis EFS004) 8 µg/mL; (E. faecium EFM001) 4 µg/mL; (K. pneumoniae KP002) 32 µg/mL; (P. aeruginosa PA005) above 128 µg/mL. Moreover, the MIC (S. aureus SA019) was 2 µg/mL, the MIC (S. epidermidis SE002) was determined as 2 µg/mL, the MIC (S. maltophilia SMA001) stood at 16 µg/mL and the MIC (S. marcescens SMS004) was above 128 µg/mL.
As for I L K K W P W W P W R R k [MBI 11E2CN], the MIC was 4 µg/mL (A. calcoaceticus AC002); above 128 µg/mL (E. cloacae ECL007); 8 µg/mL (E. coli ECO002); 32 µg/mL (E. faecalis EFS002); 16 µg/mL (E. faecium EFM001); 64 µg/mL (K. pneumoniae KP002). Moreover, the MIC reads like this: (P. aeruginosa PA001) above 128 µg/mL; (S. aureus SA016) 2 µg/mL; (S. epidermidis SE010) 4 µg/mL; (S. maltophilia SMA001) 64 µg/mL; (S. marcescens SMS004) above 128 µg/mL.
On to I L K K W P W W W R R K [MBI 11G5CN], for which the MIC was 4 µg/mL (A. calcoaceticus AC002); above 128 µg/mL (E. cloacae ECL007); 16 µg/mL (E. coli ECO003); 16 µg/mL (E. faecalis EFS002); 8 µg/mL (E. faecium EFM002); above 128 µg/mL (K. pneumoniae KP001). Further, the MIC is, setting by setting: (P. aeruginosa PA003) above 128 µg/mL; (S. aureus SA012) 4 µg/mL; (S. epidermidis SE002) 2 µg/mL; (S. maltophilia SMA002) 64 µg/mL; (S. marcescens SMS004) above 128 µg/mL.
For the molecule P W W P W R R K [MBI 11D3CN], the MIC by setting is: (A. calcoaceticus AC001) above 128 µg/mL; (E. cloacae ECL007) above 128 µg/mL; (E. coli ECO002) 64 µg/mL; (E. faecalis EFS002) 32 µg/mL; (E. faecium EFM003) 8 µg/mL; (K. pneumoniae KP002) above 128 µg/mL. Further, the minimum inhibitory concentration (MIC) is above 128 µg/mL (P. aeruginosa PA024), 8 µg/mL (S. aureus SA009), 64 µg/mL (S. maltophilia SMA001) and above 128 µg/mL (S. marcescens SMS004).
Turning to “ILRWPWWPWRRKMILKKAGS [MBI 11B17CN]”, the MIC runs as follows: (A. calcoaceticus AC002) 2 µg/mL; (E. cloacae ECL007) above 128 µg/mL; (E. coli ECO005) 8 µg/mL; (E. faecalis EFS008) 4 µg/mL; (K. pneumoniae KP001) 16 µg/mL; (P. aeruginosa PA004) above 128 µg/mL. This molecule also registered a minimum inhibitory concentration (MIC) (S. aureus SA093) of 2 µg/mL, an MIC (S. epidermidis SE010) of 4 µg/mL, an MIC (S. maltophilia SMA002) of 32 µg/mL and an MIC (S. marcescens SMS003) above 128 µg/mL.
For the molecule W W P W R R K [MBI 11D9M8], the MIC is 128 µg/mL under setting [1]; above 128 µg/mL under setting [2]; above 128 µg/mL under setting [12]; 8 µg/mL under setting [3]; 128 µg/mL (E. faecalis EFS002); 128 µg/mL under setting [4]. Further, the MIC is, setting by setting: (E. faecium EFM002) 32 µg/mL; under setting [5], above 128 µg/mL; under setting [6], above 128 µg/mL; (S. aureus SA007) 32 µg/mL; under setting [7], 128 µg/mL; (S. aureus SA016) 128 µg/mL. Further, the MIC is 8 µg/mL under setting [8], 128 µg/mL under setting [9], above 128 µg/mL under setting [10] and above 128 µg/mL under setting [11].
For the molecule “I L R R W P W W P W R R K [MBI 11B1CNW1]”, the MIC (A. calcoaceticus AC002) was 16 µg/mL; the MIC (E. cloacae ECL007) was determined as 64 µg/mL; the MIC (E. coli ECO005) was 32 µg/mL; the MIC (E. faecalis EFS004) was determined as 8 µg/mL; the MIC (K. pneumoniae KP001) worked out at 32 µg/mL; the MIC (P. aeruginosa PA004) is 64 µg/mL. The minimal inhibitory concentration (MIC) runs as follows: (S. aureus SA014) 16 µg/mL; (S. epidermidis SE010) 8 µg/mL; (S. maltophilia SMA002) 32 µg/mL; (S. marcescens SMS003) above 128 µg/mL.
In the case of I L R W P W W P W R A K [MBI 11H11CN], the MIC reads like this: under setting [1], 4 µg/mL; under setting [2], above 128 µg/mL; under setting [12], 16 µg/mL; under setting [3], 2 µg/mL; under setting [4], 8 µg/mL; under setting [5], 16 µg/mL. Besides, the MIC is, setting by setting: under setting [6], above 128 µg/mL; under setting [7], 4 µg/mL; under setting [8], 1 µg/mL; under setting [9], 4 µg/mL; under setting [10], 64 µg/mL; under setting [11], above 128 µg/mL.
